For orientation: IC50 means the concentration needed to halve the response being measured. A higher IC50 goes with weaker potency. By inhibition is commonly meant how much of the control response was suppressed. What is called Hill coefficient is the slope factor of the fitted curve. Broadly, the half-life is the time needed for the level to fall by half in the phase considered. A high value points to slow loss. The Papp A→B is the apparent permeability from the apical to the basolateral side of a cell layer. Higher therefore signals ready permeation. One may read the Papp B→A as the apparent permeability from the basolateral to the apical side of a cell layer. A word on the solubility (thermodynamic): it is solubility found after equilibrating the solid with the medium.

“And” between values parts separate entries of the source, which are not always exact repeats. Equal entries are not always repeated. Structures can show the parent of a compound that is named as a salt.

Data on ten molecules can be found in patent US20240122878A1 (priority 2021, published 2024).

Data set [1] has as its target hERG (Homo sapiens, UniProt Q12809). Put plainly: Non GLP hERG channel current study (manual patch). As to conditions: human. The format is cell-based. Here is the method:
(§1) The objective of this study was to examine the in vitro effects of three test articles on the hERG (human ether-a-go-go-related gene) channel current (a surrogate for the rapidly activating delayed rectifier cardiac potassium current, IKr). The concentration-response relationship was evaluated at near-physiological temperature (35-37° C.
Background: Block of hERG is tested as a sign of cardiac risk.

Data set [2] deals with hERG (human ether-a-go-go-related gene) channel current (Homo sapiens, UniProt Q12809). Put plainly: Non GLP hERG channel current study (manual patch). The format is cell-based. As to conditions: for Hill coefficient: non GLP study. Here is the method:
as §1

Data set [3] is described as follows: in vitro. As to conditions: 37° C.; for half-life at 10 μM / half-life: simulated gi fluid; for half-life at 10 μM / Half-Life, Rep. 1-3 / half-life / Half-Life, Mean: 10 μM; for % Compound Remaining, Mean / % Compound Remaining, Rep. 1-3: 100 μg/mL. Here is the method: Gastrointestinal solution stability was performed along with the Caco-2 cell permeability assay study.

A short description of data set [4]: in vitro. As to conditions: human. From the text: (§2) Based on historical data obtained in the experimental model, the mean permeability value (Papp) for each reference compound was expected to fall within the predetermined specifications.
(§3) Fluorescein was used as the zero-permeability marker in all Caco-2 cell assays as a quality control for the integrity of the Caco-2 monolayer. […] Well-defined criteria (known or readily available to those of ordinary skill in the art) have been established for the acceptance of fluorescein results to validate monolayer integrity.
(§4) Testing concentrations for the in vitro permeability assessment were determined at 1%, 10%, and 100% of the highest strength dissolved in 250 mL. […]

For data set [5], the system named is Caco-2 monolayer. Nature of the data set: in vitro.
Text: as §2, §3, §4

Data set [6] in a line: Equilibrium solubility study. The settings on record: for solubility thermodynamic: 37 °C, thermodynamic from solid, Equilibrium solubility.
Where [7] appears, read: Caco-2, Percent Recovery, Mean, B-A, 10 μM.
Where [8] appears, read: Caco-2, Percent Recovery, Rep. 1-3, A-B, 10 μM.
Where [9] appears, read: Caco-2, Percent Recovery, Rep. 1-3, B-A, 10 μM.
Where [10] appears, read: Caco-2, pH 6.5, Permeability, Mean.
Where [11] appears, read: Caco-2, pH 6.5, Permeability, Rep. 1-3.
Where [12] appears, read: Caco-2, Percent Recovery, Mean, A-B, 10 μM.
Where [13] appears, read: Caco-2, pH 6.5, Permeability, Mean, A-B, Caco-2, pH 6.5/7.4, 10 μM.
Where [14] appears, read: Caco-2, pH 6.5, Permeability, Rep. 1-3, A-B, Caco-2, pH 6.5/7.4, 10 μM.
Setting [15] is: Caco-2, pH 6.5, Permeability, Rep. 1-3, B-A, Caco-2, pH 6.5/7.4, 10 μM.
Setting [16] is: Caco-2, pH 6.5, Permeability, Mean (SD).
[17] abbreviates: simulated gastric fluid, 0 minutes.
Setting [18] is: simulated gastric fluid, 60 minutes.
The mark [19] stands for this setting: simulated intestinal fluid, 0 minutes.
[20] abbreviates: simulated intestinal fluid, 180 minutes.

hERG, sequence (Q12809 whole entry): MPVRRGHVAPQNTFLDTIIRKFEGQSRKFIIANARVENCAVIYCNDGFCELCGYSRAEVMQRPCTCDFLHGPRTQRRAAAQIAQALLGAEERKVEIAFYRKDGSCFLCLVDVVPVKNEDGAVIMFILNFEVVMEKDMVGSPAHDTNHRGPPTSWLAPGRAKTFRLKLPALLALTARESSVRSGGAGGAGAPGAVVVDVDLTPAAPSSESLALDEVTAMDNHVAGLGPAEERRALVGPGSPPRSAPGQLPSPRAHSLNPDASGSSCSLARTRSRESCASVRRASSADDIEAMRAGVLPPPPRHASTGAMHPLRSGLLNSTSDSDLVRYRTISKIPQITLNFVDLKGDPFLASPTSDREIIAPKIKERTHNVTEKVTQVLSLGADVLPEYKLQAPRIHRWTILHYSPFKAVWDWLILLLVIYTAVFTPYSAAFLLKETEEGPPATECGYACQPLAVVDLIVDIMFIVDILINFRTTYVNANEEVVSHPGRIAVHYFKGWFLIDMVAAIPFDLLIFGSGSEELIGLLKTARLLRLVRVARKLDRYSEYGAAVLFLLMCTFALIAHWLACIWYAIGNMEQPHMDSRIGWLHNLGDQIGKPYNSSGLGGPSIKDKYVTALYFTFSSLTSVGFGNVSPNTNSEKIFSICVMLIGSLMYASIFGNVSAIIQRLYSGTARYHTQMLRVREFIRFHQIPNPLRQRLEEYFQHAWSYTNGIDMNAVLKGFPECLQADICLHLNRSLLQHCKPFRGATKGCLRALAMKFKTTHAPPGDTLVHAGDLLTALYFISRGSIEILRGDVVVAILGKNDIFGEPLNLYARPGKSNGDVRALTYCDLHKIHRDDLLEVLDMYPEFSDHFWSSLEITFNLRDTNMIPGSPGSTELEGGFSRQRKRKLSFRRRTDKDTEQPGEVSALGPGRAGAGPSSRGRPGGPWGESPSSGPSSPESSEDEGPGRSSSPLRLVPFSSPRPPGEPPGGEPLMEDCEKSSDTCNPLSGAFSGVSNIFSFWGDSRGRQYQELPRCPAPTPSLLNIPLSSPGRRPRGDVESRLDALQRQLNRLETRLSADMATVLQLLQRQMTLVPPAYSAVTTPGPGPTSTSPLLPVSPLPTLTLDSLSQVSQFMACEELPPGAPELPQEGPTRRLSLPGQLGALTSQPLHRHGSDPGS
hERG (human ether-a-go-go-related gene) channel current, sequence (Q12809 whole entry): as above

In the case of `CCC(=O)C(CC(C)N(C)C)(c1ccccc1)c1ccccc1` (racemic) [racemic methadone], the IC50 in data set [1] amounted to 1 µM. The inhibition at 0.3 µM in data set [1] (0.3 μM, read-out: Inhibition of hERG current (Mean, SEM; n=4)) amounted to 33.4%. Moreover, the inhibition at 1 µM in data set [1] (1 uM, read-out: Inhibition of hERG current (Mean, SEM; n=4)) amounted to 43.6%. For the same molecule, in data set [1] (10 μM, read-out: Inhibition of hERG current (Mean, SEM; n=4)), the inhibition at 10 µM amounted to 86.9%. Also, the inhibition at 3 μM in data set [1] (3 AM, read-out: Inhibition of hERG current (Mean, SEM; n=4)) is 71.1%. This molecule came in with a Hill coefficient in data set [2] of 0.743.
Take `O=C(O)CCCc1ccc(N(CCCl)CCCl)cc1` [Chlorambucil, reference compound]: the half-life at 10 μM was 26 min in data set [3] (Mean, simulated intestinal fluid) and 26.2 min in data set [3] (Rep. 1-3, simulated intestinal fluid). In data set [3] (simulated intestinal fluid), the “Half-Life, Rep. 1-3” value is 25.7 min.
With `COc1cc2c(c(OC)c1OC)-c1ccc(OC)c(=O)cc1[C@@H](NC(C)=O)CC2` [Colchicine], the recovery in data set [4] (setting [7]) turned out to be 91%; in data set [4] (setting [8]), 88%; in data set [4] (setting [9]) it was 88%. In addition, the Papp A→B is 3 nm/s in data set [4] (setting [10]) and 3.1 nm/s in data set [4] (setting [11]). In addition, the Papp B→A came out at 73 nm/s in data set [4] (setting [10]) and 76.9 nm/s in data set [4] (setting [11]). Besides, the “Percent Recovery, Rep. 1-3” value came to 78% in data set [5] (A-B, 10 μM) and 94% in data set [5] (B-A, 10 μM).
`CC[C@H]1OC(=O)[C@H](C)[C@@H](O[C@H]2C[C@@](C)(OC)[C@@H](O)[C@H](C)O2)[C@H](C)[C@@H](O[C@@H]2O[C@H](C)C[C@H](N(C)C)[C@H]2O)[C@](C)(O)C[C@@H](C)C(=O)[C@H](C)[C@@H](O)[C@]1(C)O` [Erythromycin, reference compound]: in data set [3] (simulated gastric fluid), the “Half-Life, Rep. 1-3” value is 6.5 min. For the same molecule, the half-life in data set [3] (Mean, simulated gastric fluid) was 6 min; in data set [3] (Rep. 1-3, simulated gastric fluid), 6.4 min.
In the case of `CC(CCc1ccccc1)NCC(O)c1ccc(O)c(C(N)=O)c1` (stereo not drawn) [Labetalol], the recovery worked out at 117% in data set [4] (setting [12]) and 118% in data set [4] (setting [8]). The Papp A→B in data set [4] (setting [13]) worked out at 196 nm/s; in data set [4] (setting [14]), 202 nm/s. In addition, the Papp B→A came out at 493 nm/s in data set [4] (Caco-2, pH 6.5, Permeability, Mean, B-A, Caco-2, pH 6.5/7.4, 10 μM) and 487 nm/s in data set [4] (setting [15]).
For the molecule `CC(C)[N+](C)(CCOC(=O)C1c2ccccc2Oc2ccccc21)C(C)C` [Propanthaline, reference compound], in data set [3] (simulated gastric fluid), the “Half-Life, Mean” value is over 60 min and the “Half-Life, Rep. 1-3” value was over 60 min. Also, in data set [3] (simulated intestinal fluid), the “Half-Life, Mean” value was over 180 min; the “Half-Life, Rep. 1-3” value was 253.1 min and 251.2 min and 227.0 min.
For the molecule `CC(C)NCC(O)COc1cccc2ccccc12` (stereo not drawn) [Propranolol], the recovery in data set [4] (setting [12]) stood at 104%; in data set [4] (setting [7]) it was 108%; in data set [4] (setting [8]), 106%; in data set [4] (setting [9]), 106%. In addition, the Papp B→A in data set [4] (setting [10]) was 475 nm/s; in data set [4] (setting [11]) it was 481 nm/s. The Papp A→B in data set [4] (setting [13]) stood at 409 nm/s; in data set [4] (setting [14]) it was 454 nm/s. The molecule also had a Papp B→A at 10 μM in data set [4] (setting [15]) of 488 nm/s. For the same molecule, the “Percent Recovery, Rep. 1-3” value in data set [5] (A-B, 10 μM) is 99%; in data set [5] (B-A, 10 μM) it was 115% and 102%. The “Permeability, Rep. 1-3” value in data set [5] (A-B, Caco-2, pH 6.5/7.4, 10 μM) was 40.35 10^−6 cm/s and 36.94 10^−6 cm/s; in data set [5] (human, Caco-2, pH 6.5) it was 45.79 10^−6 cm/s.
Consider `CNC(=C[N+](=O)[O-])NCCSCc1ccc(CN(C)C)o1` [Ranitidine], for which the recovery in data set [4] (setting [12]) amounted to 101%; in data set [4] (setting [8]), 100%. For the same molecule, the values for the Papp A→B in data set [4] (setting [10]) and in data set [4] (setting [11]) were 7 nm/s and 8 nm/s, respectively. The Papp B→A in data set [4] (setting [10]) came to 24 nm/s; in data set [4] (setting [11]) it was 25.4 nm/s. The “Percent Recovery, Rep. 1-3” value was 99% in data set [5] (A-B, 10 μM); 96% and 92% in data set [5] (B-A, 10 μM).
Turning to `CCC(=O)C(C[C@H](C)N(C)C)(c1ccccc1)c1ccccc1` [esmethadone HCl], the recovery in data set [4] (Caco-2, Mean recovery values, across the assays) was 51 to 74%; in data set [4] (Caco-2, Percent Recovery, Mean (SD), A-B, 1 μg/mL), 51%; in data set [4] (Caco-2, Percent Recovery, Mean (SD), A-B, 10 μg/mL), 57%; in data set [4] (Caco-2, Percent Recovery, Mean (SD), A-B, 100 μg/mL), 61%; in data set [4] (Caco-2, Percent Recovery, Mean (SD), B-A, 1 μg/mL), 60%; in data set [4] (Caco-2, Percent Recovery, Mean (SD), B-A, 10 μg/mL), 74%. The recovery in data set [4] (Caco-2, Percent Recovery, Mean (SD), B-A, 100 μg/mL) came out at 74%; in data set [4] (Caco-2, Percent Recovery, Rep. 1-3, A-B, 1 μg/mL), 53%; in data set [4] (Caco-2, Percent Recovery, Rep. 1-3, A-B, 10 μg/mL), 57%; in data set [4] (Caco-2, Percent Recovery, Rep. 1-3, A-B, 100 μg/mL) it was 64%; in data set [4] (Caco-2, Percent Recovery, Rep. 1-3, B-A, 1 μg/mL), 65%; in data set [4] (Caco-2, Percent Recovery, Rep. 1-3, B-A, 10 μg/mL) it was 67%. This molecule displayed a recovery in data set [4] (Caco-2, Percent Recovery, Rep. 1-3, B-A, 100 μg/mL) of 74%. Also, the results for the Papp A→B in data set [4] (setting [16]) and in data set [4] (setting [11]) were 163 nm/s and 210 nm/s, respectively. Moreover, the figures for the Papp B→A in data set [4] (setting [16]) and in data set [4] (setting [11]) were 286 nm/s and 294 nm/s, respectively. Also, the “Percent Recovery, Rep. 1-3” value in data set [5] (A-B, 10 μg/mL) was 54%; in data set [5] (A-B, 100 μg/mL) it was 56%; in data set [5] (B-A, 1 μg/mL) it was 58% and 59%; in data set [5] (B-A, 10 μg/mL), 82%; in data set [5] (B-A, 100 μg/mL) it was 82% and 68%. Further, the Permeability category entry in data set [5] (Caco-2) is recorded as “high permeability”. Besides, the “% Compound Remaining, Mean” value is on record as 100 % remaining in data set [3] (setting [17]), 109 % remaining in data set [3] (setting [18]), 100 % remaining in data set [3] (setting [19]) and 97 % remaining in data set [3] (setting [20]). For the same molecule, the “% Compound Remaining, Rep. 1-3” value is 100.0 % remaining in data set [3] (setting [17]); 110.2 % remaining and 127.3 % remaining and 90.0 % remaining in data set [3] (setting [18]); 100.0 % remaining in data set [3] (setting [19]); 89.6 % remaining and 96.6 % remaining and 105.9 % remaining in data set [3] (setting [20]). Moreover, the solubility (thermodynamic) was 58.8 mg/mL in data set [6] (pH 1.2, simulated gastric fluid, Mean, pH 1.2, 37° C.); 62.1 mg/mL in data set [6] (pH 1.2, simulated gastric fluid, replicates, pH 1.2, 37° C., individual replicates); 66.9 mg/mL in data set [6] (pH 4.5, aqueous buffer, Mean, pH 4.5, 37° C.); 67 mg/mL in data set [6] (pH 4.5, aqueous buffer, replicates, pH 4.5, 37° C., individual replicates); 3.2 mg/mL in data set [6] (pH 6.8, aqueous buffer, Mean, pH 6.8, 37° C.); 3.1 mg/mL in data set [6] (pH 6.8, aqueous buffer, replicates, pH 6.8, 37° C., individual replicates). The “Stability of the drug substance in each buffer” value in data set [6] (over the total time of the solubility study) is at most 10%. In addition, the “Equilibrium solubility, replicates” value is 60.0 mg/mL and 54.2 mg/mL in data set [6] (pH 1.2, 37° C., individual replicates); 66.7 mg/mL and 66.8 mg/mL in data set [6] (pH 4.5, 37° C., individual replicates); 3.2 mg/mL in data set [6] (pH 6.8, 37° C., individual replicates).
For the molecule `CCC(=O)C(C[C@@H](C)N(C)C)(c1ccccc1)c1ccccc1` [levomethadone], the inhibition at 0.366 µM in data set [1] (0.366 μM (n=5), 35-37° C., read-out: Inhibition of hERG current (Mean±SEM)) came to 36 ± 4.9%. For the same molecule, the inhibition at 1.13 µM in data set [1] (1.13 μM (n=4), read-out: Inhibition of hERG current (Mean±SEM)) worked out at 54.3 ± 6.7%. Besides, in data set [1] (3.32 μM (n=4), read-out: Inhibition of hERG current (Mean±SEM)), the inhibition at 3.32 µM is 73.6 ± 1.5%. The inhibition at 11.2 µM in data set [1] (11.2 μM, read-out: Inhibition of hERG current (Mean±SEM)) turned out to be 90 ± 0.5%. In data set [2], this molecule yielded an IC50 of 0.828 µM and a Hill coefficient of 0.764.
